Biological target: Angiotensin II receptor (Homo sapiens) (UniProt P30556+P50052)
Assay: In vitro angiotensin II-like activity, expressed as percent relative to angiotensin II, measured in the rabbit aorta strip assay
Format: functional, tissue-based
Conditions: Oryctolagus cuniculus

Row | SMILES | Biological activity
1 | CC[C@H](C)[C@H](NC(=O)[C@H](Cc1ccc(O)cc1)NC(=O)[C@@H](NC(=O)[C@@H](CCCN=C(N)N)NC(=O)[C@@H](N)CC(=O)O)C(C)C)C(=O)NC(Cc1c[nH]cn1)C(=O)N1CCC[C@@H]1C(=O)N[C@@H](C(=O)O)[C@@H](C)CC (stereo in doubt) | -0%
2 | CC[C@H](C)[C@H](NC(=O)[C@@H](Cc1ccc(O)cc1)NC(=O)[C@@H](NC(=O)[C@H](CCCNC(=N)N)NC(=O)CNC)C(C)C)C(=O)N[C@@H](Cc1c[nH]cn1)C(=O)N1CCC[C@H]1C(=O)N[C@@H](C(=O)O)C(C)C | -0%
3 | CC[C@H](C)[C@H](NC(=O)[C@@H]1CCCN1C(=O)[C@H](Cc1c[nH]cn1)NC(=O)[C@H](NC(=O)[C@@H](Cc1ccc(O)cc1)NC(=O)[C@@H](NC(=O)[C@H](CCCN=C(N)N)NC(=O)CNC)C(C)C)C(C)C)C(=O)O | -0%
4 | CC[C@H](C)[C@H](NC(=O)C(C)NC(=O)[C@H](Cc1c[nH]cn1)NC(=O)[C@H](NC(=O)[C@@H](Cc1ccc(O)cc1)NC(=O)[C@@H](NC(=O)[C@H](CCCNC(=N)N)NC(=O)[C@@H](N)CC(=O)O)C(C)C)C(C)C)C(=O)O (stereo in doubt) | -0%
5 | CC[C@H](C)[C@H](NC(=O)[C@@H]1CCCN1C(=O)[C@H](Cc1c[nH]cn1)NC(=O)[C@@H](NC(=O)[C@@H](Cc1ccc(O)cc1)NC(=O)[C@@H](NC(=O)[C@@H](CCCN=C(N)N)NC(=O)CNC)C(C)C)[C@@H](C)CC)C(=O)O | -0%
6 | CC[C@H](C)[C@H](NC(=O)[C@@H]1CCCN1C(=O)[C@@H](Cc1c[nH]cn1)NC(=O)[C@@H](NC(=O)[C@@H](Cc1ccc(O)cc1)NC(=O)[C@@H](NC(=O)[C@H](CCCN=C(N)N)NC(=O)CNC)C(C)C)[C@@H](C)CC)C(=O)O | -0%
7 | CC[C@H](C)[C@H](NC(=O)[C@@H]1CCCN1C(=O)[C@H](Cc1c[nH]cn1)NC(=O)[C@@H](NC(=O)[C@@H](Cc1ccc(O)cc1)NC(=O)[C@@H](NC(=O)[C@H](CCCN=C(N)N)NC(=O)CNC)C(C)C)[C@@H](C)CC)C(=O)O | -0%
8 | CC[C@H](C)[C@H](NC(=O)[C@@H]1CCCN1C(=O)[C@H](Cc1c[nH]cn1)NC(=O)[C@@H](NC(=O)[C@H](Cc1ccc(O)cc1)NC(=O)[C@H](NC(=O)[C@H](CCCN=C(N)N)NC(=O)CNC)C(C)C)[C@@H](C)CC)C(=O)O | -0%

Second part, the compound after the results:

Row | Biological activity | SMILES
9 | -0% | CC[C@H](C)[C@H](NC(=O)[C@H](Cc1ccc(O)cc1)NC(=O)[C@@H](NC(=O)[C@@H](CCCNC(=N)N)NC(=O)CNC)C(C)C)C(=O)N[C@@H](Cc1c[nH]cn1)C(=O)N1CCC[C@@H]1C(=O)NC(Cc1c[nH]c2ccccc12)C(=O)O (stereo in doubt)
10 | -0% | CC[C@H](C)[C@H](NC(=O)[C@H](Cc1ccc(O)cc1)NC(=O)[C@@H](NC(=O)[C@@H](CCCNC(=N)N)NC(=O)CNC)C(C)C)C(=O)N[C@@H](Cc1c[nH]cn1)C(=O)N1CCC[C@@H]1C(=O)N[C@H](Cc1ccccc1)C(N)=O
11 | -0% | CC[C@H](C)[C@H](NC(=O)[C@H](Cc1ccc(O)cc1)NC(=O)[C@@H](NC(=O)[C@@H](CCCNC(=N)N)NC(=O)CNC)C(C)C)C(=O)N[C@@H](Cc1c[nH]cn1)C(=O)N1CCC[C@@H]1C(=O)N[C@H](Cc1ccc(B(O)O)cc1)C(=O)O
12 | -0% | CC[C@H](C)[C@H](NC(=O)[C@H](Cc1ccc(O)cc1)NC(=O)[C@@H](NC(=O)[C@@H](CCCNC(=N)N)NC(=O)CNC)C(C)C)C(=O)N[C@@H](Cc1c[nH]cn1)C(=O)N1CCC[C@@H]1C(=O)N[C@H](Cc1ccc(Cl)cc1)C(=O)O
13 | -0% | CC[C@H](C)[C@H](NC(=O)[C@H](Cc1ccc(O)cc1)NC(=O)[C@@H](NC(=O)[C@@H](CCCNC(=N)N)NC(=O)CNC)C(C)C)C(=O)N[C@@H](Cc1c[nH]cn1)C(=O)N1CCC[C@@H]1C(=O)N[C@@H](Cc1ccc2ccccc2c1)C(=O)O
14 | -0% | CC[C@H](C)[C@H](NC(=O)[C@H](Cc1ccc(O)cc1)NC(=O)[C@@H](NC(=O)[C@@H](CCCNC(=N)N)NC(=O)CNC)C(C)C)C(=O)N[C@@H](Cc1c[nH]cn1)C(=O)N1CCC[C@@H]1C(=O)N[C@](C)(Cc1ccccc1)C(=O)O
